The source of these data is US20140073634A1 (Institute For Applied Cancer Science/The University of …, priority 2012, published 2014).

Counter-ions that a name gives are not always drawn.

In the assay the test system is 293T-HRE-GFP-luc cells. The assay is described as follows: Cell-based reporter assay for IC50 determinations (HRE-luciferase, hypoxia). The settings on record: 6 hrs hypoxia (1% O2), luminescence. The procedure:
Cell-Based Reporter Assay for IC50 Determinations
293T-HRE-GFP-luc cells were routinely maintained in DMEM media (high glucose version with GlutaMAX and HEPES, Gibco, catalog #10564) supplemented with 10% fetal bovine serum and 2 μg/mL puromycin (Invitrogen, catalog #A11138-03) using a humidified incubator (normoxia conditions consisting of 37° C., 5% CO2 and ambient O2).
In preparation for the reporter assay, cells were harvested and resuspended in DMEM media (high glucose version with GlutaMAX and HEPES) supplemented with 10% fetal bovine serum. Cells were inoculated into 384-well white Culturplates (Perkin Elmer catalog #6007680) at a density of 12,000 cells/well in a volume of […]. The microplates were incubated overnight (approximately 17-19 hours) at 37° C. with 5% CO2 and ambient O2. Stock solutions of the test compounds were prepared in DMSO (Sigma, Catalog #D2650) and serially diluted 1:3 using DMSO. Compounds were additionally diluted (1:50) with culturemedium and 10 µL were added per well to the Culturplate. Following a 30 min. incubation under normoxia conditions, the plates were incubated in hypoxia for 6 hrs. (37° C., 5% CO2 and 1% O2). Steadylite Plus (Perkin Elmer, catalog #6016751) was then added ([…]), the plates were mixed on an orbital shaker at room temperature in the dark for 15 min., and luminescence was measured using an Envision plate reader (Perkin Elmer). IC50 values were calculated using a four-parameter logistic curve fit. Results are shown below in Table 2; ND indicates no data.

One may read the IC50 as the concentration that gives 50% inhibition. Molecule `O=c1ccc(-c2nc(-c3ccc(OC(F)(F)F)cc3)no2)cn1Cc1ccnc(N2CCC(O)CC2)c1` [Example 163, 1-{[2-(4-hydroxypiperidin-1-yl)pyridin-4-yl]methyl}-5-{3-[4-(trifluoromethoxy)phenyl]-1,2,4-oxadiazol-5-yl}-1,2-dihydropyridin-2-one] gave an IC50 (6 h) of under 100 nM. On the same count and under the same terms, then `CN1CCN(c2cccc(Cn3cc(-c4nc(-c5ccc(OC(F)(F)F)cc5)no4)ccc3=O)c2)CC1` [Example 116, 1-(3-(4-methylpiperazin-1-yl)benzyl)-5-(3-(4-(trifluoromethoxy)phenyl)-1,2,4-oxadiazol-5-yl)pyridin-2(1H)-one], with under 100 nM.

The molecule `CS(=O)(=O)CCCOc1cccc(Cn2cc(-c3noc(-c4ccc(S(C)(=O)=O)cc4)n3)ccc2=O)c1` [Example 205, 5-[5-(4-methanesulfonylphenyl)-1,2,4-oxadiazol-3-yl]-1-{[3-(3-methanesulfonylpropoxy)phenyl]methyl}-1,2-dihydropyridin-2-one] gave an IC50 (6 h) of under 100 nM.

Turning to `COc1ccc(Cn2cc(-c3nc(-c4ccc(OC(F)(F)F)cc4)no3)ccc2=O)cc1` [Example 136, 1-[(4-methoxyphenyl)methyl]-5-{3-[4-(trifluoromethoxy)phenyl]-1,2,4-oxadiazol-5-yl}-1,2-dihydropyridin-2-one], the IC50 (6 h) is under 100 nM. `O=c1ccc(-c2nc(-c3ccc(OC(F)(F)F)cc3)no2)cn1Cc1cccc(C(O)CO)c1` (single isomer, unassigned) [Example 53b, (1S)- or (1R)-1-(3-(1,2-dihydroxyethyl)benzyl)-5-(3-(4-(trifluoromethoxy)phenyl)-1,2,4-oxadiazol-5-yl)pyridin-2(1H)-one] had a half-inhibitory concentration (IC50) of under 100 nM.

With `CNS(=O)(=O)c1ccc(-c2nc(-c3ccc(=O)n(Cc4cccc(OCCOC)c4)c3)no2)cc1` [Example 199, 4-[3-(1-{[3-(2-methoxyethoxy)phenyl]methyl}-6-oxo-1,6-dihydropyridin-3-yl)-1,2,4-oxadiazol-5-yl]-N-methylbenzene-1-sulfonamide], the IC50 (6 h) was 100 to 1000 nM. For the molecule `O=C(c1cc(Cn2nc(-c3nc(-c4ccc(OC(F)(F)F)cc4)no3)ccc2=O)ccc1F)N1CCOCC1` [Example 129, 2-{[4-fluoro-3-(morpholine-4-carbonyl)phenyl]methyl}-6-{3-[4-(trifluoromethoxy)phenyl]-1,2,4-oxadiazol-5-yl}-2,3-dihydropyridazin-3-one], the IC50 (6 h) is 100 to 1000 nM.

With `CNC(=O)c1cccc(Cn2c(C)ccc(-c3nc(-c4ccc(OC(F)(F)F)cc4)no3)c2=O)c1` [Example 23, N-Methyl-3-((6-methyl-2-oxo-3-(3-(4-(trifluoromethoxy)phenyl)-1,2,4-oxadiazol-5-yl)pyridin-1(2H)-yl)methyl)benzamide], the half-inhibitory concentration (IC50) (6 h) lay within 100 to 1000 nM. As for `CC(=O)N1CCN(c2cccc(Cn3cc(-c4nc(-c5ccc(OC(F)(F)F)cc5)no4)ccc3=O)c2)CC1` [Example 182], the half-inhibitory concentration (IC50) (6 h) was under 100 nM. On the same count and under the same terms, the result for `O=c1ccc(-c2nc(-c3ccc(OC(F)(F)F)cc3)no2)nn1Cc1ccc(F)c(Br)c1` [Example 108, 2-(3-bromo-4-fluorobenzyl)-6-(3-(4-(trifluoromethoxy)phenyl)-1,2,4-oxadiazol-5-yl)pyridazin-3(2H)-one] reads 100 to 1000 nM; that for `COCCOc1cccc(Cn2cc(-c3noc(-c4ccc(C5=CCSCC5)cc4)n3)ccc2=O)c1` [Example 209, 5-{5-[4-(3,6-dihydro-2H-thiopyran-4-yl)phenyl]-1,2,4-oxadiazol-3-yl}-1-{[3-(2-methoxyethoxy)phenyl]methyl}-1,2-dihydropyridin-2-one], under 100 nM; that for `CC(C)Oc1ccc(-c2nnc(-c3ccc(=O)n(Cc4cccc(N5CCC(S(C)(=O)=O)CC5)c4)n3)o2)cc1` [Example 106, 6-(5-(4-Isopropoxyphenyl)-1,3,4-oxadiazol-2-yl)-2-(3-(4-(methylsulfonyl)piperidin-1-yl)benzyl)pyridazin-3(2H)-one], under 100 nM. Molecule `COCCOc1cccc(Cn2cc(-c3noc(-c4cnc(NC(C)C)nc4)n3)ccc2=O)c1` [Example 248, 1-{[3-(2-methoxyethoxy)phenyl]methyl}-5-(5-{2-[(propan-2-yl)amino]pyrimidin-5-yl}-1,2,4-oxadiazol-3-yl)-1,2-dihydropyridin-2-one] gave an IC50 (6 h) of under 100 nM.

In turn, `CS(=O)(=O)C1CCN(c2cccc(Cn3cc(-c4cc(-c5ccc(OC(F)(F)F)cc5)no4)ccc3=O)c2)CC1` [Example 98, 1-(3-(4-(Methylsulfonyl)piperidin-1-yl)benzyl)-5-(3-(4-(trifluoromethoxy)phenyl)isoxazol-5-yl)pyridin-2(1H)-one] showed a half-inhibitory concentration (IC50) (6 h) of under 100 nM. The same measure, in the same setting: the result for `CN1CCN(c2cc(Cn3cccc(-c4nc(-c5ccc(OC(F)(F)F)cc5)no4)c3=O)ccn2)CC1` [Example 20, 1-((2-(4-methylpiperazin-1-yl)pyridin-4-yl)methyl)-3-(3-(4-(trifluoromethoxy)phenyl)-1,2,4-oxadiazol-5-yl)pyridin-2(1H)-one] reads 100 to 1000 nM; that for `COCCOc1cccc(Cn2cc(-c3noc(-c4ccc(CC(C)C)cc4)n3)ccc2=O)c1` [Example 236, 1-{[3-(2-methoxyethoxy)phenyl]methyl}-5-{5-[4-(2-methylpropyl)phenyl]-1,2,4-oxadiazol-3-yl}-1,2-dihydropyridin-2-one], under 100 nM; that for `CC(C)c1ccc(-c2nc(-c3ccc(=O)n(Cc4cccc(OCCCS(C)(=O)=O)c4)c3)no2)cc1` [Example 210, 1-{[3-(3-methanesulfonylpropoxy)phenyl]methyl}-5-{5-[4-(propan-2-yl)phenyl]-1,2,4-oxadiazol-3-yl}-1,2-dihydropyridin-2-one], under 100 nM.

`Cc1ccc(-c2nc(-c3ccc(OC(F)(F)F)cc3)no2)c(=O)n1Cc1ccnc(N2CCN(C)CC2)c1` [Example 5, 1-methyl-4-(4-((6-methyl-2-oxo-3-(3-(4-(trifluoromethoxy)phenyl)-1,2,4-oxadiazol-5-yl)pyridin-1(2H)-yl)methyl)pyridin-1-ium-2-yl)piperazin-1-ium bis-trifluoroacetate] displayed a 50% inhibitory concentration (IC50) (6 h) of under 100 nM. Same read-out and setting: the result for `O=c1ccc(-c2nc(-c3ccc(OC(F)(F)F)cc3)no2)cn1Cc1ccc(F)c(N2CCC(O)CC2)c1` [Example 139, 1-{[4-fluoro-3-(4-hydroxypiperidin-1-yl)phenyl]methyl}-5-{3-[4-(trifluoromethoxy)phenyl]-1,2,4-oxadiazol-5-yl}-1,2-dihydropyridin-2-one] reads under 100 nM; that for `CN1CCN(c2cc(Cn3cc(-c4cc(-c5ccc(OC(F)(F)F)cc5)on4)ccc3=O)ccn2)CC1` [Example 97a, 1-((2-(4-Methylpiperazin-1-yl)pyridin-4-yl)methyl)-5-(5-(4-(trifluoromethoxy)phenyl)isoxazol-3-yl)pyridin-2(1H)-one], under 100 nM. Same read-out and setting: the result for `CS(=O)(=O)CCCOc1cccc(Cn2cc(-c3noc(-c4ccc(OC(F)F)cc4)n3)ccc2=O)c1` [Example 207] reads under 100 nM. Regarding `CS(=O)(=O)CCCOc1cccc(Cn2cc(-c3nnc(-c4ccc(OC(F)(F)F)cc4)o3)ccc2=O)c1` [Example 104], the IC50 (6 h) is under 100 nM. Same read-out and setting: then `CN1CCN(c2cccc(Cn3nc(C(=O)Nc4ccc(OC(F)(F)F)cc4)ccc3=O)c2)CC1` [Example 4, 1-(3-(4-Methylpiperazin-1-yl)benzyl)-6-oxo-N-(4-(trifluoromethoxy)phenyl)-1,6-dihydropyridazine-3-carboxamide trifluoroacetate salt], with under 100 nM; and `COCCOc1cccc(Cn2cc(-c3noc(-c4cnc(N5CCCCC5)nc4)n3)ccc2=O)c1` [Example 88, 1-(3-(2-Methoxyethoxy)benzyl)-5-(5-(2-(piperidin-1-yl)pyrimidin-5-yl)-1,2,4-oxadiazol-3-yl)pyridin-2(1H)-one], with under 100 nM; and `CC(C)(O)c1cccc(Cn2cc(-c3nnc(-c4ccc(OC(F)F)cc4)o3)ccc2=O)c1` [Example 261, 5-{5-[4-(difluoromethoxy)phenyl]-1,3,4-oxadiazol-2-yl}-1-{[3-(2-hydroxypropan-2-yl)phenyl]methyl}-1,2-dihydropyridin-2-one], with 100 to 1000 nM. On the same count and under the same terms, then `O=c1ccc(-c2nc(-c3ccc(OC(F)(F)F)cc3)no2)cn1Cc1cccc(CBr)c1` [Example 171, 1-{[3-(bromomethyl)phenyl]methyl}-5-{3-[4-(trifluoromethoxy)phenyl]-1,2,4-oxadiazol-5-yl}-1,2-dihydropyridin-2-one], with under 100 nM; and `CS(=O)(=O)N1CCN(c2cccc(Cn3cc(-c4nc(-c5ccc(OC(F)(F)F)cc5)no4)ccc3=O)c2)CC1` [Example 61], with under 100 nM.

On to `CN1CCN(c2cccc(Cn3cc(-c4noc(-c5ccc(OC(F)F)cc5)n4)ccc3=O)c2)CC1` [Example 189, 5-{5-[4-(difluoromethoxy)phenyl]-1,2,4-oxadiazol-3-yl}-1-{[3-(4-methylpiperazin-1-yl)phenyl]methyl}-1,2-dihydropyridin-2-one], for which the IC50 (6 h) was under 100 nM. The same measure, in the same setting: the result for `O=c1ccc(-c2nc(-c3ccc(OC(F)(F)F)cc3)no2)cn1Cc1cccc(CO)c1` [Example 43, 1-{[3-(Hydroxymethyl)phenyl]methyl}-5-{3-[4-(trifluoromethoxy)phenyl]-1,2,4-oxadiazol-5-yl}-1,2-dihydropyridin-2-one] reads under 100 nM.
